From patent publication US12624018B1, “Inhibitors of RIPK2 and medical uses thereof” (Odyssey Therapeutics, Inc., priority 2022, dated 2026)
Like-named read-outs stand apart in the source and are kept apart here.

Assays:
human NOD2 signaling = experiment: Inhibition of human NOD2 signaling in HEK-Blue-hNOD2 cells (L18-MDP stimulated, SEAP reporter); type: cell-based; conditions: NOD2 ligand stimulation, SEAP reporter, read-out: hNOD2 IC50
Method: Materials: Human NOD32-expressing 1TEK293 cells, HEK-Blue™-hNOD2 cells, were developed by Invivogen (catalogue number: hkb-hnod2) using co-transfection of the human NOD2 gene and an optimized secreted embryonic alkaline phosphatase (SEAP) reporter gene into HTEK293 cells. The cell maintenance medium consisted of DMEM (Giboc, 21063-029), heat inactivated FBS, penicillin (100 U/mL), streptomycin (100 μg/mL), Normocin (100 μg/mL), Blasticidin (30 μg/mL), and Zeocin (100 μg/mL). HEK-Blue™-hNOD2 cells were transferred to assay medium consisting of DMEM (Giboc, 21063-029), heat inactivated FBS, penicillin (100 U/mL) and streptomycin (100 μg/mL) prior to stimulation. Stimulation with a NOD2 ligand, L18-MDP (Invivogen, catalogue number: tlrl-lmdp) activated NF-κB and AP-1 which induced the production of SEAP. Levels of SEAP were determined with HEK-Blue™ Detection (referred to as QUANTI-Blue solution), a cell culture medium that allows for real-time detection of SEAP. QUANTI-Blue solution was prepared by adding 1 mL of QB reagent and 1 mL of QB buffer to 98 mL of sterile H2O. Test compounds were prepared into a 10 mM DMSO solution and were serially diluted into 10 points using a 3-fold dilution in a 384 well plate using a TECAN EVO200.
Method: In a 384 well plate, 40 nL of test compound was dispensed using Echo550. HEK-Blue™-hNOD2 cells (Invivogen) were prepared into a cell suspension and 40 μL of the cell suspension (12500 cells per well) was dispensed into the 384 well plate. To activate NOD2 signaling, 40 nL of L18-MDP (final concentration of 0.5 ng/mL) was added and the plate was incubated at 37° C. in a CO2 incubator for 24 hours. After the 24-hour incubation, 5 μL of the induced HEK-Blue hNOD2 cell supernatant was transferred to a new 384-well plate, centrifuged, and 45 μL of QUANTI-Blue solution was added per well and incubated for 3 hours at 37° C. SEAP levels were measured using an Ensight at 620 nm. Percent inhibition of NOD2 signaling was determined using the following equation: (high control−test compound signal)/(High control−low control)×100. The reaction high control was determined using wells with DMSO, cells, L18-MDP, and QUANTI-Blue solution. The reaction low control was determined using wells with DMSO, cells, and QUANTI-Blue solution. 4-parametric curve fit was used to determine the test compound concentration that results in 50% reduction of L18-MDP-driven human NOD2 signaling.
Using the assay described above, inhibition of hNOD2 signaling was also evaluated for GSK 2983559 (Haile at al., J. Med. Chem. 2019, 62, 14, 6482-6494), a known RIPK2 kinase inhibitor: […]

RIPK2 enzyme = molecular target: T1, RIPK2 enzyme (Homo sapiens, UniProt O43353); experiment: RIPK2 inhibition (ADP-Glo Kinase Assay); type: biochemical; conditions: RIPK2 5 nM, ATP 150 μM, MBP substrate, read-out: RIPK2 IC50
T1 construct: purchased Carna 09-128
T1 sequence (O43353 1-299 limits assumed): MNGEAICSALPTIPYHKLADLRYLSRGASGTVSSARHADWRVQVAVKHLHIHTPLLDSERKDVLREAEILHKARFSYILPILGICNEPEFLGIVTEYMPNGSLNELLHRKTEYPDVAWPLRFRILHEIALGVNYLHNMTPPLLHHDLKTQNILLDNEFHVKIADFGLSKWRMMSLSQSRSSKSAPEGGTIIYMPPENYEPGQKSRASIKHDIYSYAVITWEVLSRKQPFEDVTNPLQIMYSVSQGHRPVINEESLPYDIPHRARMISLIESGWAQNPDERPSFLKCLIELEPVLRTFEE
Summary of the method: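 Swine MBP substrate; compound and 5 nM RIPK2 first mixed for 30 min at room temperature; buffer pH 7.5 HEPES 50 mM with 10 mM MgCl2, 2 mM DTT, 1 mM EGTA, Brij-35, BSA.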

[1] = Homo sapiens, HEK-Blue hNOD2, HEK-Blue-hNOD2 cells

Row | IC50 (human NOD2 signaling; [1]) | IC50 (RIPK2 enzyme) | IC50 (human NOD2 signaling; HEK-Blue-hNOD2 cells) | SMILES
1 | 27 nM | < 2.5 nM |  | Cc1cc(CC(=O)Nc2cnn(C(C)C(F)(F)F)c2)ccc1Oc1ccnc2ccc(S(C)(=O)=O)cc12 (single isomer, unassigned) [Compound 594, 2-(3-methyl-4-((6-(methylsulfonyl)quinolin-4-yl)oxy)phenyl)-N-(1-(1,1,1-trifluoropropan-2-yl)-1H-pyrazol-4-yl)acetamide]
2 |  | < 2.5 nM | 19.3 nM | Cc1cc(CC(=O)Nc2cnn(C(C)C(F)(F)F)c2)ccc1Oc1ccnc2ccc(S(C)(=O)=O)cc12 (single isomer, unassigned) [Compound 595, 2-(3-methyl-4-((6-(methylsulfonyl)quinolin-4-yl)oxy)phenyl)-N-(1-(1,1,1-trifluoropropan-2-yl)-1H-pyrazol-4-yl)acetamide]
3 | 46.3 nM | < 2.5 nM |  | Cc1cc(CC(=O)Nc2cnn(C(C)(C)C)c2)ccc1Oc1ccnc2ccc(C(O)C(N)=O)cc12 (single isomer, unassigned) [Compound 609, 2-(4-((6-(2-amino-1-hydroxy-2-oxoethyl)quinolin-4-yl)oxy)-3-methylphenyl)-N-(1-(tert-butyl)-1H-pyrazol-4-yl)acetamide]
4 | 17.5 nM | 2.8 nM |  | Cc1cc(CC(=O)Nc2cnn(C(C)(C)C)c2)ccc1Oc1ccnc2ccc(C(C)(O)C(N)=O)cc12 (single isomer, unassigned) [Compound 615, 2-(4-(4-(2-((1-(tert-butyl)-1H-pyrazol-4-yl)amino)-2-oxoethyl)-2-methylphenoxy)quinolin-6-yl)-2-hydroxypropanamide]
5 |  | < 2.5 nM | 22.4 nM | Cc1cc(CC(=O)Nc2cnn(C(C)(C)C)c2)ccc1Oc1ccnc2ccc(C(C)(O)C(N)=O)cc12 (single isomer, unassigned) [Compound 616, 2-(4-(4-(2-((1-(tert-butyl)-1H-pyrazol-4-yl)amino)-2-oxoethyl)-2-methylphenoxy)quinolin-6-yl)-2-hydroxypropanamide]
6 | 6.7 nM | < 2.5 nM |  | Cc1cc(CC(=O)Nc2cc(C(C)(C)C)[nH]n2)ccc1Oc1ccnc2cc(F)c(S(C)(=N)=O)cc12 (single isomer, unassigned) [Compound 620, N-(5-(tert-butyl)-1H-pyrazol-3-yl)-2-(4-((7-fluoro-6-(S-methylsulfonimidoyl)quinolin-4-yl)oxy)-3-methylphenyl) acetamide]
7 |  | < 2.5 nM | 11.7 nM | Cc1cc(CC(=O)Nc2cc(C(C)(C)C)[nH]n2)ccc1Oc1ccnc2cc(F)c(S(C)(=N)=O)cc12 (single isomer, unassigned) [Compound 621, N-(5-(tert-butyl)-1H-pyrazol-3-yl)-2-(4-((7-fluoro-6-(S-methylsulfonimidoyl)quinolin-4-yl)oxy)-3-methylphenyl) acetamide]
8 | 7.5 nM | < 2.5 nM |  | CC(C)(C)n1cc(NC(=O)Cc2ccc(Oc3ccnc4ccc(C(N)=O)cc34)c(C(F)F)c2)cn1 [Compound 462, 4-(4-(2-((1-(tert-butyl)-1H-pyrazol-4-yl)amino)-2-oxoethyl)-2-(difluoromethyl)phenoxy) quinoline-6-carboxamide]
9 | 4 nM | < 2.5 nM |  | CNC(=O)c1ccc2nccc(Oc3ccc(CC(=O)Nc4cnn(C(C)(C)C)c4)cc3C(F)F)c2c1 [Compound 463, 4-(4-(2-((1-(tert-butyl)-1H-pyrazol-4-yl)amino)-2-oxoethyl)-2-(difluoromethyl)phenoxy)-N-methylquinoline-6-carboxamide]
10 | 54 nM | 4.2 nM |  | Cc1cc(CC(=O)Nc2cnn(C(C)(C)C)c2)c(F)cc1Oc1ccnc2ccc(-c3ncccc3C)cc12 [Compound 475, N-(1-(tert-butyl)-1H-pyrazol-4-yl)-2-(2-fluoro-5-methyl-4-((6-(3-methylpyridin-2-yl)quinolin-4-yl)oxy)phenyl)acetamide]
11 | 26 nM | < 2.5 nM |  | Cc1cc(CC(=O)Nc2cnn(C(C)(C)C)c2)c(F)cc1Oc1ccnc2ccc(-c3c[nH]nc3O)cc12 [Compound 478, N-(1-(tert-butyl)-1H-pyrazol-4-yl)-2-(2-fluoro-4-((6-(3-hydroxy-1H-pyrazol-4-yl)quinolin-4-yl)oxy)-5-methylphenyl)acetamide]
12 | 0.8 nM | < 2.5 nM |  | COc1n[nH]cc1-c1ccc2nccc(Oc3cc(F)c(CC(=O)Nc4cnn(C(C)(C)C)c4)cc3C)c2c1 [Compound 480, N-(1-(tert-butyl)-1H-pyrazol-4-yl)-2-(2-fluoro-4-((6-(3-methoxy-1H-pyrazol-4-yl)quinolin-4-yl)oxy)-5-methylphenyl)acetamide]
13 | 0.6 nM | < 2.5 nM |  | CCc1nc(-c2ccc3nccc(Oc4cc(F)c(CC(=O)Nc5cnn(C(C)(C)C)c5)cc4C)c3c2)n[nH]1 [Compound 483, N-(1-(tert-butyl)-1H-pyrazol-4-yl)-2-(4-((6-(5-ethyl-1H-1,2,4-triazol-3-yl)quinolin-4-yl)oxy)-2-fluoro-5-methylphenyl)acetamide]
14 | 0.4 nM | < 2.5 nM |  | Cc1cc(CC(=O)Nc2cnn(C(C)(C)C)c2)c(F)cc1Oc1ccnc2ccc(-c3nc[nH]n3)cc12 [Compound 484, 2-(4-((6-(1H-1,2,4-triazol-3-yl)quinolin-4-yl)oxy)-2-fluoro-5-methylphenyl)-N-(1-(tert-butyl)-1H-pyrazol-4-yl)acetamide]
15 | 0.3 nM | < 2.5 nM |  | [2H]C([2H])([2H])c1cc(CC(=O)Nc2cnn(C(C)(C)C)c2)ccc1Oc1ccnc2ccc(S(=O)(=O)C([2H])([2H])[2H])cc12 [Compound 485, N-(1-(tert-butyl)-1H-pyrazol-4-yl)-2-(3-(methyl-d3)-4-((6-((methyl-d3)sulfonyl)quinolin-4-yl)oxy)phenyl)acetamide]
16 | 1.8 nM | < 2.5 nM |  | CSc1ccc2nccc(Oc3ccc(CC(=O)Nc4cnn(C(C)(C)C)c4)cc3C)c2c1 [Compound 486, N-(1-(tert-butyl)-1H-pyrazol-4-yl)-2-(3-methyl-4-((6-(methylthio)quinolin-4-yl)oxy)phenyl)acetamide]
17 | 0.1 nM | < 2.5 nM |  | [2H]C([2H])([2H])NC(=O)c1ccc2nccc(Oc3ccc(CC(=O)Nc4cnn(C(C)(C)C)c4)cc3C)c2c1 [Compound 491, 4-(4-(2-((1-(tert-butyl)-1H-pyrazol-4-yl)amino)-2-oxoethyl)-2-methylphenoxy)-N-(methyl-d3)quinoline-6-carboxamide]
18 | 0.2 nM | < 2.5 nM |  | [2H]C([2H])([2H])NC(=O)c1cc2c(Oc3ccc(CC(=O)Nc4cnn(C(C)(C)C)c4)cc3C)ccnc2cc1F [Compound 493, 4-(4-(2-((1-(tert-butyl)-1H-pyrazol-4-yl)amino)-2-oxoethyl)-2-methylphenoxy)-7-fluoro-N-(methyl-d3)quinoline-6-carboxamide]
19 | 0.3 nM | < 2.5 nM |  | Cc1cc(CC(=O)Nc2cnn(C(C)(C)C)c2)c(F)cc1Oc1ccnc2ccc(-c3cnccc3C)cc12 [Compound 507, N-(1-(tert-butyl)-1H-pyrazol-4-yl)-2-(2-fluoro-5-methyl-4-((6-(4-methylpyridin-3-yl)quinolin-4-yl)oxy)phenyl)acetamide]
20 | 2.5 nM | < 2.5 nM |  | Cc1cc(CC(=O)Nc2cnn(C(C)(C)C)c2)c(F)cc1Oc1ccnc2ccc(-c3cccnc3C)cc12 [Compound 508, N-(1-(tert-butyl)-1H-pyrazol-4-yl)-2-(2-fluoro-5-methyl-4-((6-(2-methylpyridin-3-yl)quinolin-4-yl)oxy)phenyl)acetamide]
21 | 8 nM | < 2.5 nM |  | [2H]C([2H])([2H])NC(=O)c1ccc2nccc(Oc3cc(F)c(CC(=O)Nc4cnn(C56CC(C5)C6)c4)cc3Cl)c2c1 [Compound 511, 4-(4-(2-((1-(bicyclo[1.1.1]pentan-1-yl)-1H-pyrazol-4-yl)amino)-2-oxoethyl)-2-chloro-5-fluorophenoxy)-N-(methyl-d3)quinoline-6-carboxamide]
